Measured values as given in patent publication US20080014145A1, “ABALONE SETTLEMENT BIOASSAY FOR ANTI-SEIZURE SUBSTANCE SCREENING” (priority 2006, published 2008).

Assays:
[1] = tested on: Haliotis rufescens larvae; conditions: cited from earlier work; for induction of larvae settlement: in vivo
[2] = tested on: two different species of Haliotis; conditions: cited from earlier work
[3] = tested on: Haliotis rufescens; conditions: in vivo; cited from earlier work
[4] = tested on: larvae of Haliotis discus hannai; conditions: in vivo; cited from earlier work
[5] = biological target: T1, thyroxine-binding globulin (Homo sapiens, UniProt P05543); conditions: cited from earlier work
T1 sequence (P05543 21-415): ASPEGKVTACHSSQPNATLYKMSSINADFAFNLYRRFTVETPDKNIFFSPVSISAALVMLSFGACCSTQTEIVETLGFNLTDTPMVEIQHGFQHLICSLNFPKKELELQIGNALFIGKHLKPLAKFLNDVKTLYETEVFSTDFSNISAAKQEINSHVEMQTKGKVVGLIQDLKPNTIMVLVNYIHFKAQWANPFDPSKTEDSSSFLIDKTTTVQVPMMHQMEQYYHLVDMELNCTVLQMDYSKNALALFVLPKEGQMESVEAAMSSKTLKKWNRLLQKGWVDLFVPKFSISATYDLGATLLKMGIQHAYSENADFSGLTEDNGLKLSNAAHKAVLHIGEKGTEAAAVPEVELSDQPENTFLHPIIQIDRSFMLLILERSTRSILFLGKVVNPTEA

[6] = tested on: chemically induced electrographic seizures; assay: Focal perfusion of rat cerebral cortex, chemically induced electrographic seizures; assay type: in vivo; conditions: focal perfusion of local areas of rat cerebral cortex; personal experience

Row | SMILES | induction of larvae settlement [1] | also measured
1 | Br [Br^−] |  | induction of settlement by anion replacement ([1]; replacing 25-75% of the Cl^− in seawater): may be induced
2 | N[C@H](CCC(=O)O)C(=O)O [D-glutamate] | completely ineffective | 
3 | NCCCC(=O)O [GABA, γ-aminobutyric acid] |  | larval attachment ([1]; 10^−6 molar in sea water): 96-100%
4 | N[C@@H](CCC(=O)O)C(=O)O [L-glutamate] | did slowly promote larval settlement | 
5 | NC(=O)CC[C@H](N)C(=O)O [L-glutamine] | completely ineffective | 
6 | N[C@@H](Cc1cc(I)c(Oc2cc(I)c(O)c(I)c2)c(I)c1)C(=O)O [L-thyroxine] |  | induction of larval metamorphosis [2]: can induce larval metamorphosis; induction of larval metamorphosis [3]: could induce larval metamorphosis
7 | [Mg+2] [Mg^+2] | not able to induce | 
8 | [Na+] [Na^+] | not able to induce | 
9 | N[C@@H](Cc1cc(I)c(Oc2ccc(O)c(I)c2)c(I)c1)C(=O)O [T3] |  | induction of larval metamorphosis [2]: can induce larval metamorphosis
10 | CBr [bromomethane] |  | induction in larvae [4]: induction has been triggered
11 | CN1C(=O)CN=C(c2ccccc2)c2cc(Cl)ccc21 [diazepam] |  | inhibition of thyroxine binding to thyroxine-binding globulin [5]: competitively inhibit
12 | CNC[C@H](O)c1ccc(O)c(O)c1 [epinephrine] | not able to induce | 
13 | NCC(=O)O [glycine] | can also induce Haliotis larvae settlement | 
14 | NCCc1c[nH]cn1 [histamine] | not able to induce | 
15 | NCc1cc(=O)[nH]o1 [muscimol] | can also induce Haliotis larvae settlement | 
16 | CCCCN [n-butylamine] | not able to induce | 
17 | CCCC(=O)O [n-butyric acid] | not able to induce | 
18 | NC[C@H](O)c1ccc(O)c(O)c1 [norepinephrine] | not able to induce | 
19 | [Cl-].[K+] [potassium chloride] |  | effect on chemically induced electrographic seizures [6]: may prevent or abort
20 | [K+] [potassium] |  | promotion of settlement ([1]; higher concentrations of K^+): will not promote settlement; effect on settlement induction by GABA ([1]; low concentration of K^+): inhibit induction by GABA; larva attached ([1]; ˜10 mM above that found in seawater, within 72 hours): up to 90%
21 | NCCc1c[nH]c2ccc(O)cc12 [serotonin] | not able to induce | 
22 | NCCC(=O)O [β-alanine] | can also induce Haliotis larvae settlement | 
23 | NCCCCC(=O)O [δ-amniovaleric] | can also induce Haliotis larvae settlement | 
24 | NCCCCCC(=O)O [ε-amniocaproic acid] | can also induce Haliotis larvae settlement | 
